Measurements published in patent publication US7329678B2, “Chemical compounds” (SmithKline Beecham Corporation, priority 2003, dated 2008).
Counter-ions that a name gives are not always drawn.

These molecules were tested against T1, Serum Glucocorticoid-regulated Kinase-1 (SGK-1) (Homo sapiens, UniProt O00141, S422D) (assay: SGK-1 Enzyme Assay (SGK1e), substrate phosphorylation, scintillation proximity). Conditions: truncated human SGK-1 (aa 61-431, S422D), 10 μM ATP, Crosstide substrate.
T1 construct: a truncated form of the human enzyme that included amino acids 61-431; 6xHis (N); made in house
T1 sequence (O00141 61-431 S422D): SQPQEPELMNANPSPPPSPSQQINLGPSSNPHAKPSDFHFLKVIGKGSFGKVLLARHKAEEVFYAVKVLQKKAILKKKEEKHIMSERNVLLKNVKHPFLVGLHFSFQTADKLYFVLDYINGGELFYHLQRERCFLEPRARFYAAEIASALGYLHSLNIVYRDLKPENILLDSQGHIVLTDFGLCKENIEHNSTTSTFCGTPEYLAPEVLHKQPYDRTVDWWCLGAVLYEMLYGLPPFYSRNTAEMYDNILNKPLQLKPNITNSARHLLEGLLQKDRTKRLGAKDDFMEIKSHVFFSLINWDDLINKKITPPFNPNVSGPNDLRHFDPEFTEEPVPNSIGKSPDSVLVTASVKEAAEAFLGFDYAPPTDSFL
Format: biochemical
Procedure: SGK-1 Enzyme Assay (SGK1e):
Compounds of the present invention were tested for Serum Glucocorticoid-regulated Kinase-1 (SGK-1) protein serine/threonine kinase inhibitory activity in substrate phosphorylation assays using enzyme purified from a baculovirus expression vector system. The recombinant baculovirus was made to express the intracellular domain of SGK-1 (GenBank accession number AAD41091). The virus expressed a truncated form of the human enzyme that included amino acids 61-431. Serine 422 was replaced with Aspartic acid to activate the enzyme, and 6 Histidine residues were added at the amino terminus to facilitate purification. The protein was purified using Ni-NTA agarose affinity chromatography. The peptide substrate was an N-terminal biotinylated synthetic peptide named Crosstide (biotin-Ahx-GRPRTSSFAEG-OH), corresponding to the sequence in GSK3 surrounding the serine phosphorylated by MAPKAP Kinase-1/Rsk and p70 S6 Kinase.
The method measures the ability of the isolated enzyme to catalyze the transfer of the γ-phosphate from ATP onto serine/threonine residues in the biotinylated Crosstide. Reactions were performed in 96-well polystyrene round-bottom plates in a final volume of 30 μL. Reaction mixtures contained 62.5 mM HEPES (pH 7.4), 10 mM MgCl2, 0.1 mM EDTA, 0.0024% TWEEN-20, and 1 mM DTT (added fresh daily), 10 μM ATP, 0.2 μCi [[ν-^33P] ATP per reaction, 4 μM Crosstide peptide substrate, and 1 nM SGK1 enzyme. Reactions were initiated by adding the indicated enzyme. The reaction was allowed to proceed for 2 hours, then terminated by the addition of 50 mM EDTA and quantified using a scintillation proximity assay procedure as described (McDonald, O. B., Antonsson, B., Arkinstal, S., Marshall, C. J., and Wood, E. R. (1999) Analytical Biochemistry, 268, 318-329).
Compounds under analysis were dissolved in Me2SO to 1 mM and serially diluted 1 to 3 with Me2SO through eleven columns of a 96 well plate. 1 μL of each concentration was transferred to the corresponding well of the assay plate. This created a final compound concentration range from 0.56 nM to 33.3 μM.
The data for dose responses were plotted as % Control calculated with the data reduction formula 100*(U1−C2)/(C1−C2) versus concentration of compound and fitted to the curve described by: y=((Vmax*x)/(K+x)) where Vmax is the upper asymptote and K is the IC50.
Molecule `Nc1ncc(-c2ccccc2)cc1-c1nc2ccccc2[nH]1` [Example 1, 3-(1H-benzimidazol-2-yl)-5-phenylpyridin-2-amine hydrochloride] has an IC50 of less than 1000 nM. Work on `COC(=O)c1ccc2nc(-c3cc(-c4cccc(OC)c4)cnc3N)[nH]c2c1` [Example 7, Methyl 2-[2-amino-5-(3-methoxyphenyl)pyridin-3-yl]-1H-benzimidazole-6-carboxylate hydrochloride] yielded an IC50 of less than 1000 nM. Work on `COc1cccc(-c2cnc(N)c(-c3nc4cc(Cl)c(F)cc4[nH]3)c2)c1` [Example 11, 3-(5-chloro-6-fluoro-1H-benzimidazol-2-yl)-5-(3-methoxyphenyl)pyridin-2-amine hydrochloride] yielded an IC50 of less than 1000 nM. `Cc1cccc2[nH]c(-c3cc(-c4ccc(F)cc4)cnc3N)nc12` [Example 17, 5-(4-fluorophenyl)-3-(4-methyl-1H-benzimidazol-2-yl)pyridin-2-amine] gave an IC50 of less than 1000 nM. With `Nc1ncc(-c2ccccc2)cc1-c1nc2ccc(S(N)(=O)=O)cc2[nH]1` [Example 4, 2-(2-amino-5-phenylpyridin-3-yl)-1H-benzimidazole-6-sulfonamide hydrochloride] the IC50 was less than 1000 nM. `Nc1ncc(-c2ccc(F)cc2)cc1-c1nc2ccc(S(N)(=O)=O)cc2[nH]1` [Example 14, 2-[2-amino-5-(4-fluorophenyl)pyridin-3-yl]-1H-benzimidazole-6-sulfonamide] showed an IC50 of less than 1000 nM.
